pIC50: −log10 of the molar value.
Columns and labels:
[1] = system: RSV A2 strain; assay: Assessment of RSV induced CPE in HEp2 cells (RSV A2 strain); assay type: cell-based; conditions: human respiratory syncytial virus, HEp2 cells; for pIC50: HEp-2, 120 h, 1 MOI, 5 days, read-out: RSV A2 CPE IC50; for inhibition at 0.01 µg/mL / inhibition at 0.1 µg/mL: HEp-2; for inhibition at 0.01 µg/mL: Inhibition (%) at 0.01 μg/mL; for inhibition at 0.1 µg/mL: Inhibition (%) at 0.1 μg/mL, read-out: RSV A2 CPE % Inhibition
Method in brief: (§1)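 HEp2 cells were infected at MOI 1 with RSV A2 or RSV B Washington, with compound added at the same time (0.5% DMSO final). Incubation was 5 days for A2 and 6 days for B, then viability was read by resazurin fluorescence (545/590 nm) after 6 h. IC50, IC75 and IC90 came from concentration-response curves.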

[2] = system: RSV B Washington strain; assay: Assessment of RSV induced CPE in HEp2 cells (RSV B Washington strain); assay type: cell-based; conditions: human respiratory syncytial virus, HEp2 cells; for pIC50: HEp-2, 144 h, 1 MOI, 6 days, read-out: RSV B CPE IC50; for inhibition at 1 µg/mL / inhibition at 0.1 µg/mL: HEp-2; for inhibition at 1 µg/mL: Inhibition (%) at 1 μg/mL, read-out: RSV B CPE % Inhibition; for inhibition at 0.1 µg/mL: Inhibition (%) at 0.1 μg/mL
Method in brief: as §1

[3] = Cell viability: resazurin assay; assay type: cell-based, human; conditions: human, HEp2 cells
Method in brief: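 HEp2 cells in 5% FBS DMEM exposed to compounds (0.5% DMSO final) for 5 days at 37 °C/5% CO2, then resazurin added for 6 h; fluorescence read at 545/590 nm. Percent viability loss calculated versus 0.5% DMSO vehicle, with increases shown as negative values; CC50 taken from concentration-response curves where appropriate.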

Structure (SMILES) | pIC50 [1] | pIC50 [2] | inhibition at 0.01 µg/mL [1] [%] | inhibition at 1 µg/mL [2] [%] | CC50 at 5 days [3] [nM] | inhibition at 0.1 µg/mL [2] [%] | inhibition at 0.1 µg/mL [1] [%]
C=C(C)c1cnc(N2CC3(CCOCC3)C2)c(C(=O)Nc2ccc(C(=O)N3CCc4cc(C(=O)Nc5c(F)cccc5F)sc4-c4ccccc43)cc2)c1 [Example 73, N-(2,6-difluorophenyl)-6-(4-(5-(prop-1-en-2-yl)-2-(7-oxa-2-azaspiro[3.5]nonan-2-yl)nicotinamido)benzoyl)-5,6-dihydro-4H-benzo[b]thieno[2,3-d]azepine-2-carboxamide] | 8.59 | 7.83 | 84 | 98 | > 13400 | – | –
Cc1cccc(C#N)c1NC(=O)c1cc2c(s1)-c1ccccc1N(C(=O)c1ccc(NC(=O)c3cc4c(nc3N3CC5(CCOCC5)C3)CCC4)cc1)CC2 [Example 74, 6-(4-(2-(7-oxa-2-azaspiro[3.5]nonan-2-yl)-6,7-dihydro-5H-cyclopenta[b]pyridine-3-carboxamido)benzoyl)-N-(2-cyano-6-methylphenyl)-5,6-dihydro-4H-benzo[b]thieno[2,3-d]azepine-2-carboxamide] | 9.06 | 8.42 | 100 | 77 | > 13400 | – | –
O=C(Nc1c(F)cccc1F)c1cc2c(s1)-c1ccccc1N(C(=O)c1ccc(NC(=O)c3cc4c(nc3N3CC5(CCOCC5)C3)CCOC4)cc1)CC2 [Example 82, N-(4-(2-((2,6-difluorophenyl)carbamoyl)-5,6-dihydro-4H-benzo[b]thieno[2,3-d]azepine-6-carbonyl)phenyl)-2-(7-oxa-2-azaspiro[3.5]nonan-2-yl)-7,8-dihydro-5H-pyrano[4,3-b] pyridine-3-carboxamide] | 9.11 | 8.12 | 97 | – | > 13100 | 100 | –
O=C(Nc1c(F)cccc1Cl)c1cc2c(s1)-c1ccccc1N(C(=O)c1ccc(NC(=O)c3cc4c(nc3N3CC5(CCOCC5)C3)CCOC4)cc1)CC2 [Example 83, N-(4-(2-((2-chloro-6-fluorophenyl)carbamoyl)-5,6-di-hydro-4H-benzo[b]thieno[2,3-d]azepine-6-carbonyl)phenyl)-2-(7-oxa-2-azaspiro[3.5]nonan-2-yl)-7,8-dihydro-5H-pyrano [4,3-b]pyridine-3-carboxamide] | 9.82 | 8.21 | 100 | 95 | > 12800 | – | –
O=C(Nc1ccccc1F)c1cc2c(s1)-c1ccccc1N(C(=O)c1ccc(NC(=O)c3cc4ccccc4nc3N3CC4(CCOCC4)C3)cc1)CC2 [Example 84, 6-(4-(2-(7-oxa-2-azaspiro[3.5]nonan-2-yl)quinoline-3-carboxamido)benzoyl)-N-(2-fluorophenyl)-5,6-dihydro-4H-benzo[b]thieno[2,3-d]azepine-2-carboxamide] | 9.89 | 7.96 | – | 68 | > 13600 | – | 97
O=C(Nc1ccc(F)cc1F)c1cc2c(s1)-c1ccccc1N(C(=O)c1ccc(NC(=O)c3cc4ccccc4nc3N3CC4(CCOCC4)C3)cc1)CC2 [Example 85, 6-(4-(2-(7-oxa-2-azaspiro[3.5]nonan-2-yl)quinoline-3-carboxamido)benzoyl)-N-(2,4-difluorophenyl)-5,6-dihydro-4H-benzo[b]thieno[2,3-d]azepine-2-carboxamide] | 8.46 | 7.87 | – | 91 | > 13200 | – | 95
O=C(Nc1c(F)cccc1F)c1cc2c(s1)-c1ccccc1N(C(=O)c1ccc(NC(=O)c3cc4ccccc4nc3N3CC4(CCOCC4)C3)cc1)CC2 [Example 86, 6-(4-(2-(7-oxa-2-azaspiro[3.5]nonan-2-yl)quinoline-3-carboxamido)benzoyl)-N-(2,6-difluorophenyl)-5,6-dihydro-4H-benzo[b]thieno[2,3-d]azepine-2-carboxamide] | 9.77 | 7.64 | 85 | – | > 13200 | 100 | –
O=C(Nc1c(F)cc(F)cc1F)c1cc2c(s1)-c1ccccc1N(C(=O)c1ccc(NC(=O)c3cc4ccccc4nc3N3CC4(CCOCC4)C3)cc1)CC2 [Example 88, 6-(4-(2-(7-oxa-2-azaspiro[3.5]nonan-2-yl)quinoline-3-carboxamido)benzoyl)-N-(2,4,6-trifluorophenyl)-5,6-di-hydro-4H-benzo[b]thieno[2,3-d]azepine-2-carboxamide] | 9.24 | 8.52 | 93 | 93 | > 12900 | – | –

Further lines, with some results ahead:

pIC50 [1] | pIC50 [2] | Structure (SMILES) | inhibition at 0.01 µg/mL [1] [%] | inhibition at 1 µg/mL [2] [%] | CC50 at 5 days [3] [nM] | inhibition at 0.1 µg/mL [2] [%] | inhibition at 0.1 µg/mL [1] [%]
8.31 | 7.72 | Cc1cccc(C#N)c1NC(=O)c1cc2c(s1)-c1ccccc1N(C(=O)c1ccc(NC(=O)c3cc4c(nc3N3CC5(CCOCC5)C3)CCC4)cc1F)CC2 [Example 77, 6-(4-(2-(7-oxa-2-azaspiro[3.5]nonan-2-yl)-6,7-dihydro-5H-cyclopenta[b]pyridine-3-carboxamido)-2-fluorobenzoyl)-N-(2-cyano-6-methylphenyl)-5,6-dihydro-4H-benzo[b]thieno [2,3-d]azepine-2-carboxamide] | 94 | 92 | > 13000 | – | –
8.62 | 8.89 | Cc1cccc(F)c1NC(=O)c1cc2c(s1)-c1ccccc1N(C(=O)c1ccc(NC(=O)c3cc4c(nc3N3CC5(CCOCC5)C3)CCC4)cc1F)CC2 [Example 78, 6-(4-(2-(7-oxa-2-azaspiro[3.5]nonan-2-yl)-6,7-dihydro-5H-cyclopenta[b]pyridine-3-carboxamido)-2-fluorobenzoyl)-N-(2-fluoro-6-methylphenyl)-5,6-dihydro-4H-benzo[b]thieno [2,3-d]azepine-2-carboxamide] | 89 | 94 | > 13200 | – | –
8.64 | 8.74 | O=C(Nc1c(F)cccc1F)c1cc2c(s1)-c1ccccc1N(C(=O)c1ccc(NC(=O)c3cc4c(nc3N3CC5(CCOCC5)C3)CCC4)cc1F)CC2 [Example 79, 6-(4-(2-(7-oxa-2-azaspiro[3.5]nonan-2-yl)-6,7-dihydro-5H-cyclopenta[b]pyridine-3-carboxamido)-2-fluorobenzoyl)-N-(2,6-difluorophenyl)-5,6-dihydro-4H-benzo[b]thieno[2,3-d]azepine-2-carboxamide] | 92 | 93 | > 13100 | – | –
8.70 | 8.80 | O=C(Nc1c(F)cccc1Cl)c1cc2c(s1)-c1ccccc1N(C(=O)c1ccc(NC(=O)c3cc4c(nc3N3CC5(CCOCC5)C3)CCC4)cc1F)CC2 [Example 80, 6-(4-(2-(7-oxa-2-azaspiro[3.5]nonan-2-yl)-6,7-dihydro-5H-cyclopenta[b]pyridine-3-carboxamido)-2-fluorobenzoyl)-N-(2-chloro-6-fluorophenyl)-5,6-dihydro-4H-benzo[b]thieno [2,3-d]azepine-2-carboxamide] | 91 | 93 | > 12800 | – | –

Source: patent US10189863B2, “5,6-dihydro-4H-benzo[b]thieno-[2,3-d]azepine derivatives” (PULMOCIDE LIMITED, priority 2014, dated 2019)
